# Measured values taken from patent publication US7214686B2, “Pharmaceutical compositions and methods for effecting dopamine release” (priority 1997, dated 2007).
# Where two headings read alike, the source gives them in different places.
# What was measured:
# [1] = test system: striatal synaptosomes (dopamine release); assay: cells; format: cell-based, rat; settings: for EC50: read-out: Dopamine Release EC50
# [2] = molecular target: T1, human muscle nAChR subtype (TE671/RD cells) (Homo sapiens, UniProt P02708+P07510+Q07001); assay: cell-based; format: cell-based; settings: for Muscle Effect Ecmax: maximal activation as a percentage of that induced by L-nicotine
# T1 construct: These cells express receptors that have pharmacological; endogenous in cells; host or cells: TE671/RD (human embryonal rhabdomyosarcoma)
# T1 sequence (P02708 21-457): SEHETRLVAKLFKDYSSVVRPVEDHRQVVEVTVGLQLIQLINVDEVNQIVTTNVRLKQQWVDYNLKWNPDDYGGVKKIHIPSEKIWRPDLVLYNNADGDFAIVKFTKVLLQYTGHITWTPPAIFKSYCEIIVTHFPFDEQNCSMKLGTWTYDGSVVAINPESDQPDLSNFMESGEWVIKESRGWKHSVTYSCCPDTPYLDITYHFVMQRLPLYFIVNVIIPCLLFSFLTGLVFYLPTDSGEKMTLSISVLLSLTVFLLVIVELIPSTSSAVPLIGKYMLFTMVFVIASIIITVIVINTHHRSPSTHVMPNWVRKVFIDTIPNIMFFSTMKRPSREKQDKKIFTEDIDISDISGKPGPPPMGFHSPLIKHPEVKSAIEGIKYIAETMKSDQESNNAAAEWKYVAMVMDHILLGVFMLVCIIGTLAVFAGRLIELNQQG
# T1 sequence (P11230 24-501 partner): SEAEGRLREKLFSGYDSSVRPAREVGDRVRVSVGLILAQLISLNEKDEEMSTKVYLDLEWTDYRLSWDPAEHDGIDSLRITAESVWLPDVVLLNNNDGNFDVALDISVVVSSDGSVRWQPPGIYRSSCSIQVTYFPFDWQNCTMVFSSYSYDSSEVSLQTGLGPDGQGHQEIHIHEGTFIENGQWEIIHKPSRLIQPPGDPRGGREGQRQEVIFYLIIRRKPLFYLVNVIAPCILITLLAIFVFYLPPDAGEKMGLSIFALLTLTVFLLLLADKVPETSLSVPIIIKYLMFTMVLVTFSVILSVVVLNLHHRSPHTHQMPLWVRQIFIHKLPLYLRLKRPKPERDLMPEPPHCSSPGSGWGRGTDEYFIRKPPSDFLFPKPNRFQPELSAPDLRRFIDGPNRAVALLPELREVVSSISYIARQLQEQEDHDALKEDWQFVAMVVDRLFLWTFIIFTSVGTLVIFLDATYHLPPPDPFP
# T1 sequence (Q07001 22-517): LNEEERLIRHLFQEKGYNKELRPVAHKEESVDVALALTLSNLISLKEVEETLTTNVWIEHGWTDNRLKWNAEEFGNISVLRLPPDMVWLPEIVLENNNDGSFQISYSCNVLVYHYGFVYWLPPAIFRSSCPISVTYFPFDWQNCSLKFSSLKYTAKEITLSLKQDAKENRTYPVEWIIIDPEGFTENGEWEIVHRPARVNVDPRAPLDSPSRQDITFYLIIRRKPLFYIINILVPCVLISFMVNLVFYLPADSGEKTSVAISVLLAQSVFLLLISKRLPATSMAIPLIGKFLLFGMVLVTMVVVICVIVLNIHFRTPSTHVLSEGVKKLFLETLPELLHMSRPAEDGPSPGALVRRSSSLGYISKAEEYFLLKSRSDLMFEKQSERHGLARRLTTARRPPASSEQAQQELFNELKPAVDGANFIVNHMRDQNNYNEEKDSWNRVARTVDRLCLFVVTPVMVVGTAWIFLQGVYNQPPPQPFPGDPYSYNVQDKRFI
# T1 sequence (P07510 23-517): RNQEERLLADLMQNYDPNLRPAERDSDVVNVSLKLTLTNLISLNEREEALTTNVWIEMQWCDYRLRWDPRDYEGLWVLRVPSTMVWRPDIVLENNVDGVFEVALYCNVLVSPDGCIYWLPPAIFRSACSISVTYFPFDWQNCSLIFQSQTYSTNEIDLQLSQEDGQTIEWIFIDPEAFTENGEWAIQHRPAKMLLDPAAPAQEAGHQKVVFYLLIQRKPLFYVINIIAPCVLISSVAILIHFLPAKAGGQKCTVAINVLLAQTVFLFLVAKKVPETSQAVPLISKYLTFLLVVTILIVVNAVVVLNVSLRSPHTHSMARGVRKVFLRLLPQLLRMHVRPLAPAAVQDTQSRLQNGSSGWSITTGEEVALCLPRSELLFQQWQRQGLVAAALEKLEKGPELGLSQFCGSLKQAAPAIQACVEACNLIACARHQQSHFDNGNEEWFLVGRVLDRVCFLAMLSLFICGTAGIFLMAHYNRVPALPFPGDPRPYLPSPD
# Experimental: (§1) Cells were cultured in Dulbecco's modified Eagle's medium (Gibco/BRL) with 10% horse serum (Gibco/BRL), 5% fetal bovine serum (HyClone, Logan Utah), 1 mM sodium pyruvate, 4 mM L-Glutamine, and 50,000 units penicillin-streptomycin (Irvine Scientific). When cells were 80% confluent, they were plated to 6 well polystyrene plates (Costar). Experiments were conducted when the cells reached 100% confluency.
# (§2) On the day of the experiment, growth media was gently removed from the well and growth media containing ^86Rubidium chloride (10^6 μCi/mL) was added to each well. Cells were incubated at 37° C. for a minimum of 3 h. […] Next, cells were exposed to either 100 μM of test compound, 100 μM of L-nicotine (Acros Organics) or buffer alone for 4 min. Following the exposure period, the supernatant containing the released ^86Rb^+ was removed and transferred to scintillation vials. Scintillation fluid was added and released radioactivity was measured by liquid scintillation counting.
# Within each assay, each point had 2 replicates, which were averaged. The amount of ^86Rb^+ release was compared to both a positive control (100 μM L-nicotine) and a negative control (buffer alone) to determine the percent release relative to that of L-nicotine.
# (§3) When appropriate, dose-response curves of test compound were determined. The maximal activation for individual compounds (Emax) was determined as a percentage of the maximal activation induced by L-nicotine. The compound concentration resulting in half maximal activation (EC50) of specific ion flux was also determined.
# [3] = molecular target: T2, rat ganglionic nAChR subtype (PC12 cells) (Rattus norvegicus, UniProt P04757+P12392); assay: cell-based; format: cell-based
# T2 construct: These cells express ganglion-like nAChRs; endogenous in cells; host or cells: PC12 (rat pheochromocytoma)
# T2 sequence (P04757 26-499): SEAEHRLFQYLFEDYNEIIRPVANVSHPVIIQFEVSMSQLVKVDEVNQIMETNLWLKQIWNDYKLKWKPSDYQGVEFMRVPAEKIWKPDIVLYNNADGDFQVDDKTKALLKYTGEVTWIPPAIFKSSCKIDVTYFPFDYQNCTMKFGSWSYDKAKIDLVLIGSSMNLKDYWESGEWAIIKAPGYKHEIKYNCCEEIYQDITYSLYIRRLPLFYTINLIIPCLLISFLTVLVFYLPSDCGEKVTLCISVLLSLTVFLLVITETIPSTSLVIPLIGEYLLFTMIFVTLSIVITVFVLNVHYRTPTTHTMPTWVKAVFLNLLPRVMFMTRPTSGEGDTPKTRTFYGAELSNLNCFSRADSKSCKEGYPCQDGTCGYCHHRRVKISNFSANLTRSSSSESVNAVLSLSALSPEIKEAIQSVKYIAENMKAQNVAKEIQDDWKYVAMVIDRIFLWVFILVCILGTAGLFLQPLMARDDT
# T2 sequence (P12392 21-495): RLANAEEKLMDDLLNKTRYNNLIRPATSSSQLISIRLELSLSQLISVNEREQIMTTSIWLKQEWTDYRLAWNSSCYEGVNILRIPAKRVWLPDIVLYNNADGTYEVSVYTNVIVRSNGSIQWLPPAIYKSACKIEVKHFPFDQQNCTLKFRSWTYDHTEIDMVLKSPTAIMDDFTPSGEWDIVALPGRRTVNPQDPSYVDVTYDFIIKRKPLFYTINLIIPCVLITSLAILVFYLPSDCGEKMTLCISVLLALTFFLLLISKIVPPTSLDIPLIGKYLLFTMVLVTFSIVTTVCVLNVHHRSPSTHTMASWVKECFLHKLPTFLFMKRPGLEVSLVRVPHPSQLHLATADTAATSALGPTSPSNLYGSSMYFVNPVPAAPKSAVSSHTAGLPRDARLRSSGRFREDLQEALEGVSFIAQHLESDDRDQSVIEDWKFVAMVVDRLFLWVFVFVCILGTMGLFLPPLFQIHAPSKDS
# Experimental: Activation of rat ganglion nAChRs was established on the pheochromocytoma clonal line PC12, which is a continuous clonal cell line of neural crest origin, derived from a tumor of the rat adrenal medulla.
# as §1, with “Nunc” for “polystyrene”, “(Nunclon) and coated with 0.03% poly-L-lysine (Sigma, dissolved in 100 mM boric acid).” for “(Costar).”, “80%” for “100%”
# as §2, with “nicotine” for “L-nicotine (Acros Organics)”
# Within each assay, each point had 2 replicates, which were averaged. The amount of ^86Rb^+ release was compared to both a positive control (100 μM nicotine) and a negative control (buffer alone) to determine the percent release relative to that of L-nicotine.
# as §3
# [4] = physchem
# [5] = molecular target: T3, α4β2 nAChR subtype (Rattus norvegicus, UniProt P09483+P12390); assay: biochemical; settings: inhibition of [3H]nicotine binding, rat cerebral cortex membranes
# T3 construct: The cerebral cortex was removed and placed in 20 volumes (weight:volume) of ice-old preparative buffer; from tissue; host or cells: rat cerebral cortex membranes
# T3 sequence (P09483 31-630): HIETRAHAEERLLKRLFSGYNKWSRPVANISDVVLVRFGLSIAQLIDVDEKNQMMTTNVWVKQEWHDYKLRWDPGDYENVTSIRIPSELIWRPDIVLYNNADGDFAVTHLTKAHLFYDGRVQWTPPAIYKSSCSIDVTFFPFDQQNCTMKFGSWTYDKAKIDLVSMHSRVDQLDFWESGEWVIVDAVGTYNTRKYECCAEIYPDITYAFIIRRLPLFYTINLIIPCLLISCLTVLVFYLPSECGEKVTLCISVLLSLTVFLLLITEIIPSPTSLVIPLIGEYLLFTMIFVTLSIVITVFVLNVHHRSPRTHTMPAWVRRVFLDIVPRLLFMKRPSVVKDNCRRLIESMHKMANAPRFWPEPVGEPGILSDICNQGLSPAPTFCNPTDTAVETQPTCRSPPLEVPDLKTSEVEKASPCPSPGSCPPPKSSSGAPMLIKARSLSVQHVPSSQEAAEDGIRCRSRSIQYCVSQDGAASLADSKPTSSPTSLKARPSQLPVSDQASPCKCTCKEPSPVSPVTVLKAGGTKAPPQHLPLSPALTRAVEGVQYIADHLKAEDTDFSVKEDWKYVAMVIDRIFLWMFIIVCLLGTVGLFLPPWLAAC
# T3 sequence (P12390 25-500): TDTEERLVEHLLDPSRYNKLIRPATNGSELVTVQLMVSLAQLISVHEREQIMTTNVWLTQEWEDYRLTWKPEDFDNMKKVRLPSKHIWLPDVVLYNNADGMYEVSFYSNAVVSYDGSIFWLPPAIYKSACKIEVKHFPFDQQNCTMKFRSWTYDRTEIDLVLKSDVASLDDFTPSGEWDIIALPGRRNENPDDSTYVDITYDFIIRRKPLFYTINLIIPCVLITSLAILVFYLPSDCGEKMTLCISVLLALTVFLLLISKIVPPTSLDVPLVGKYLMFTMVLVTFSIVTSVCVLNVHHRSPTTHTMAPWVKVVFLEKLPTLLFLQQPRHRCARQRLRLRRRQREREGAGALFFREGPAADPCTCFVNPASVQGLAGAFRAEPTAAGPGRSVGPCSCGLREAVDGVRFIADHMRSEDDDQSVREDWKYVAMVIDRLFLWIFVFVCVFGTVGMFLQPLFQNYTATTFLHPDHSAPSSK
# [6] = maximal activation as a percentage of that induced by L-nicotine
# [7] = rat striatal synaptosomes, [3H]dopamine release
# [8] = 86Rb+ efflux, read-out: Ganglion Effect EC50
Compound,"Dopamine Release Ecmax [1, 6]","EC50 [1, 7] [µM]","EC50 ([2]; 86Rb+ efflux, TE671/RD cells, read-out: Muscle Effect EC50) [µM]",Muscle Effect Ecmax [2],"EC50 [3, 8] [µM]","Ganglion Effect Ecmax [3, 6]",logP [4],EC50 ([1]; Rattus norvegicus) [µM],EC50 [2] [µM],EC50 [3] [µM],Dopamine Release Ecmax [1],Ganglion Effect Ecmax [3],Ki [5] [µM],amounts causing muscle effects relative to those required to cause dopamine release ([2]; muscle effects vs dopamine release),amounts causing effects upon ganglia relative to those required to cause dopamine release ([3]; ganglia effects vs dopamine release)
"c1cncc(C2CC3CCN2CC3)c1 (racemic) [Sample No. 1, (+/−)-2-(3-pyridyl)-1-azabicyclo[2.2.2]octane]",40,0.002,0.059,110,1.1,85,1.26,,,,,,,,
"Brc1cncc(C2CC3CCN2CC3)c1 (racemic) [Sample No. 2, (+/−)-2-(5-bromo-3-pyridyl)-1-azabicyclo[2.2.2]octane]",43,,,133,,106,2.05,0.002,3,3,,,,,
"c1cncc([C@H]2C[C@@H]3CCN2C3)c1 (relative stereo) [Sample No. 3, exo 2-(3-pyridyl)-1-azabicyclo[2.2.1]heptane]",130,,,130,,100,0.94,0.006,,0.15,,,,,
"c1cncc([C@@H]2C[C@@H]3CCN2C3)c1 (relative stereo) [Sample No. 4, endo-2-(3-pyridyl)-1-azabicyclo[2.2.1]heptane]",114,,,130,,100,0.94,0.033,,0.15,,,,,
"CN1CCC[C@H]1c1cccnc1 [C-1, (S)-(−)-nicotine, reference compound]",,,,,,,,,,,100,100,,,
"c1cncc(C2C3CCN2CC3)c1 (stereo not drawn) [Sample No. 5, 7-(3-pyridyl)-1-azabicyclo[2.2.1]heptane]",93,,,130,,120,0.93,0.004,,,,,0.007,,
"Cl.Cl.Cl.Nc1cncc(C2CC3CCN2CC3)c1 (stereo not drawn) [Sample No. 6, 2-(5-amino-3-pyridyl)-1-azabicyclo[2.2.2]octane trihydrochloride]",43,0.007,,100,10,75,0.48,,,,,,0.0026,many times,many times
"CCOc1cncc(C2CC3CCN2CC3)c1.Cl.Cl (stereo not drawn) [Sample No. 7, 2-(5-ethoxy-3-pyridyl)-1-azabicyclo[2.2.2]octane dihydrochloride]",40,,,137,,86,1.82,0.005,,10,,,,,
"CC(C)Oc1cncc(C2CC3CCN2CC3)c1.Cl.Cl (stereo not drawn) [Sample No. 8, 2-(5-isopropoxy-3-pyridyl)-1-azabicyclo[2.2.2]octane dihydrochloride]",,,,,,94,1.76,,,,,,,,
